The values below come from patent US9676720B2, “Substituted biaryl compound” (UBE INDUSTRIES, LTD., priority 2013, dated 2017).

Like-named read-outs stand apart in the source and are kept apart here.

For experiment [1], the system named is Pulmonary fibroblasts derived from a human fetus (IMR90). Kind of experiment: Test for inhibition of pulmonary fibroblast proliferation (BrdU incorporation). As to conditions: Homo sapiens. Type of experiment: cell-based. As for the experimental part:
Measurement of inhibition effect of pulmonary fibroblast proliferation was performed by modifying the method of Huang et al. (American Journal of Respiratory Cell and Molecular Biology, 39, 482 (2008)). Pulmonary fibroblasts derived from a human fetus (IMR90, purchased from American Type Culture Collection) were cultured in DMEM medium containing 10% FBS and seeded at 1×10^4 cells/well of a 96-well plate. After culturing for approximately 8 hours in a carbon dioxide incubator, the medium was replaced with FBS-free DMEM medium and the culturing was performed for one night. On the following day, the medium was replaced with a new FBS-free DMEM medium, and then a test compound dissolved in dimethyl sulfoxide (final concentration: 0.1%) and FGF (final concentration: 10 ng/mL, manufactured by Wako Pure Chemical Industries, Ltd.) were added thereto and allowed to stand undisturbed in a carbon dioxide incubator. After 22 hours, a BrdU labeling solution (manufactured by Roche) was added and culturing was performed for another 2 hours. After the completion of the culturing, amount of BrdU incorporation was measured using Cell Proliferation ELISA BrdU (colorimetric) (manufactured by Roche). The concentration of the test compound required to inhibit BrdU incorporation to 50% (IC50 value) was calculated by non-linear regression of the test compound concentration and the amount of BrdU incorporation using EXSAS (Ver. 8.0.0, manufactured by Arm Systex).
On the technique in general: Uptake of a labelled nucleoside into DNA is a usual measure of proliferation.

Another experiment concerns the target human EP2 receptor (Homo sapiens (Human), UniProt P43116). Briefly: Measurement of EP2 receptor binding action. To be noted: membrane fraction of HEK293 cells expressing human EP2 receptor; [3H]prostaglandin E2 10 nM. As for the experimental part:
The membrane fraction was recovered on glass fiber filter paper (GF/B, manufactured by Whatman) using a cell harvester (M30R, manufactured by Brandel), and after washing with a buffer solution (10 mM MES-KOH (pH 6.0), 10 mM MgCl2), radioactivity was measured with a liquid scintillation analyzer (2000CA, manufactured by Packard). […] Ki=IC50/(1+([^3H]prostaglandin E2 concentration/Kd))
Note that the dissociation constant (Kd value) was calculated by Scatchard analysis.

The subject of experiment [2] is mouse pulmonary fibrosis models (bleomycin). Kind of experiment: Test for inhibition of pulmonary fibrosis in mouse (bleomycin model, lung hydroxyproline). The format is in vivo, ICR mice. As to conditions: dose of 0.3 mg/kg, intratracheal administration twice per day for 28 days. The procedure: Test for inhibition effect of pulmonary fibrosis using mouse was performed by partially modifying the method of Oku et al. (European Journal of Pharmacology, 590, 400 (2008)). […] These models were used as a bleomycin control group and a test compound administration group. Similarly, a normal group was subjected to administration of saline for 5 days. For the test, each group used 7 or more mice. The test compound solution for the administration was prepared by dissolving the test substance to the equimolar amount of 0.1 mol/L aqueous sodium hydroxide solution, and then neutralizing by adding a phosphate buffer solution (PBS) which was a medium. The test compound was administered via intratracheal administration twice per day from the start date of the test, for 28 days. For the normal group and bleomycin control group, the medium was administered similarly via intratracheal administration. For the intratracheal administration, the MicroSprayerTM (IA-1C-M, manufactured by PennCentury) was used. On the day following the completion of 28-day administration, the mice were left bleeding to die while subjecting the mice for inhalation anesthesia, to collect the lungs. […] The amount of hydroxyproline (HYP) in the lung hydrolysis solution, which is an indicator of collagen accumulation, was measured by the method of Woessner et al. (Archives of Biochemistry and Biophysics, 93, 440 (1961)). […] After cooling, 200 μL of the colored solution was placed on a microplate, and the absorbance (measurement wavelength: 570 nm, reference wavelength: 620 nm) was measured using a plate reader (SPECTRA FLOUR, manufactured by Tecan). A HYP solution having a specified concentration was reacted in the same manner to create a calibration curve, and the HYP concentration of each sample was calculated. From the calculated HYP concentration, the amount of HYP in the lung per 100 g of body weight was calculated. The inhibiting rate of HYP formation in the lung upon administration of the test compound was calculated using the formula described below. […]

The mark [3] stands for this setting: IMR-90, read-out: IC50 value (nM) of inhibition effect of pulmonary fibroblast proliferation.
Where [4] appears, read: IMR-90, IMR90, FGF 10 ng/mL, BrdU incorporation, read-out: IC50 value (nM) of inhibition effect of pulmonary fibroblast proliferation.

Chain of human EP2 receptor (P43116 whole entry): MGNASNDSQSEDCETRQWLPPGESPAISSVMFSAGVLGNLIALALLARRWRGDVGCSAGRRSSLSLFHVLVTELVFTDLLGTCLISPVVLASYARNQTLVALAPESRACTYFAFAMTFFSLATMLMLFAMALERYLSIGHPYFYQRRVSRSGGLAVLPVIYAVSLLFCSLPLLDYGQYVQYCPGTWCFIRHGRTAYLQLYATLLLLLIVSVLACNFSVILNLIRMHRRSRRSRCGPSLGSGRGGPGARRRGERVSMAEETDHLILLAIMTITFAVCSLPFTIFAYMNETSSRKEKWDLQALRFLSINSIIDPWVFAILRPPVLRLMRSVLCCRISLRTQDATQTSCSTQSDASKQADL

Consider `O=C(O)CNc1cccc(CN(Cc2ccc(-c3ccccc3)cc2)S(=O)(=O)c2ccccn2)n1` [Comparative example 1], for which the IC50 in experiment [1] (setting [3]) was greater than 1 nM. The same measure, in the same setting: under `O=C(O)CNc1cccc(CN(Cc2ccc(-c3ccccc3)cc2)S(=O)(=O)c2cccnc2)n1` [Comparative example 2, {6-[(Biphenyl-4-ylmethyl)(pyridin-3-ylsulfonyl)aminomethyl]pyridin-2-ylamino}acetic acid] stands 0.97 nM; under `O=C(O)CNc1cccc(CN(Cc2ccc(-c3ccc(F)cc3)cc2)S(=O)(=O)c2cccnc2)n1` [Comparative example 3, {6-[(4′-Fluorobiphenyl-4-ylmethyl)(pyridin-3-ylsulfonyl)aminomethyl]-pyridin-2-ylamino}acetic acid], greater than 1 nM.

Consider `O=C(O)CNc1cccc(CN(Cc2ccc(-c3ccc(Cl)cc3)cc2)S(=O)(=O)c2cccnc2)n1` [Comparative example 4, {6-[(4′-Chlorobiphenyl-4-ylmethyl)(pyridin-3-ylsulfonyl)aminomethyl]-pyridin-2-ylamino}acetic acid], for which, in experiment [1] (setting [3]), the IC50 was greater than 1 nM.

Turning to `Cc1cnc(-c2ccc(CN(Cc3cccc(NCC(=O)O)n3)S(=O)(=O)c3ccccn3)cc2)s1` [Comparative example 5], the IC50 in experiment [1] (setting [4]) was greater than 1 nM. For `Cc1cccc(-c2ccc(CN(Cc3cccc(NCC(=O)O)n3)S(=O)(=O)c3ccccn3)cc2)c1` [Comparative example 6], the IC50 in experiment [1] (setting [4]) was 0.58 nM. The same measure, in the same setting: to `CCc1cccc(-c2ccc(CN(Cc3cccc(NCC(=O)O)n3)S(=O)(=O)c3ccccn3)cc2)c1` [Comparative example 7] belongs 0.88 nM.

As to `CCCc1cccc(-c2ccc(CN(Cc3cccc(NCC(=O)O)n3)S(=O)(=O)c3ccccn3)cc2)c1` [Comparative example 8], the IC50 in experiment [1] (setting [4]) came out at 0.34 nM. By Ki is commonly meant a dissociation constant, usually derived from enzyme kinetics or from competition with a known ligand. `CCC=Cc1cccc(-c2ccc(CN(Cc3cccc(NCC(=O)O)n3)S(=O)(=O)c3ccccn3)cc2)c1` [Comparative example 9, (6-{[3′-(1-Butenyl)biphenyl-4-ylmethyl](pyridin-2-ylsulfonyl)aminomethyl}-pyridin-2-ylamino)acetic acid] registered a Ki on human EP2 receptor of 1.5 nM. Moreover, the IC50 in experiment [1] (setting [4]) turned out to be 0.75 nM. Take `C=CCc1cccc(-c2ccc(CN(Cc3cccc(NCC(=O)O)n3)S(=O)(=O)c3ccccn3)cc2)c1` [Comparative example 10]: the IC50 in experiment [1] (setting [4]) is 0.56 nM. Consider `COc1cccc(-c2ccc(CN(Cc3cccc(NCC(=O)O)n3)S(=O)(=O)c3ccccn3)cc2)c1` [Comparative example 11], for which, in experiment [1] (setting [4]), the IC50 worked out at 0.2 nM.

For the compound `CCOc1ccccc1-c1ccc(CN(Cc2cccc(NCC(=O)O)n2)S(=O)(=O)c2ccccn2)cc1` [Comparative example 13], the IC50 in experiment [1] (setting [4]) was greater than 1 nM. Still for that read-out and setting: under `CCOc1ccc(-c2ccc(CN(Cc3cccc(NCC(=O)O)n3)S(=O)(=O)c3ccccn3)cc2)cc1` [Comparative example 14] stands greater than 1 nM. On to `CC#Cc1ccccc1-c1ccc(CN(Cc2cccc(NCC(=O)O)n2)S(=O)(=O)c2ccccn2)cc1` [Comparative example 16], for which the IC50 in experiment [1] (setting [3]) was 0.5 nM. Still for that read-out and setting: to `CC#Cc1ccc(-c2ccc(CN(Cc3cccc(NCC(=O)O)n3)S(=O)(=O)c3ccccn3)cc2)cc1` [Comparative example 17] belongs greater than 1 nM. On to `CC=Cc1cccc(-c2ccc(CN(Cc3cccc(NCC(=O)O)n3)S(=O)(=O)c3ccccn3)cc2)c1` [Example 2], for which, in experiment [1] (setting [4]), the IC50 was 0.035 nM. `CC#Cc1cccc(-c2ccc(CN(Cc3cccc(NCC(=O)O)n3)S(=O)(=O)c3ccccn3)cc2)c1` [Example 4, (6-{[3′-(1-Propynyl)biphenyl-4-ylmethyl](pyridin-2-ylsulfonyl)aminomethyl}-pyridin-2-ylamino)acetic acid]: the IC50 in experiment [1] (setting [3]) worked out at 0.016 nM. Moreover, the “Inhibiting rate of HYP formation in the lung” value (from here on “Inhibiting rate”) in experiment [2] is no less than 70%. Consider `CC#Cc1cccc(-c2ccc(CN(Cc3cccc(NCC(=O)O)n3)S(=O)(=O)c3cccnc3)cc2)c1` [Example 6, (6-{[3′-(1-Propynyl)biphenyl-4-ylmethyl](pyridin-3-ylsulfonyl)aminomethyl}-pyridin-2-ylamino)acetic acid], for which, in experiment [1] (setting [3]), the IC50 came out at 0.045 nM. Turning to `CCOc1cccc(-c2ccc(CN(Cc3cccc(NCC(=O)O)n3)S(=O)(=O)c3ccccn3)cc2)c1` [Example 7, {6-[(3′-Ethoxybiphenyl-4-ylmethyl)(pyridin-2-ylsulfonyl)aminomethyl]-pyridin-2-ylamino}acetic acid], the IC50 in experiment [1] (setting [4]) worked out at 0.028 nM. In the case of `CCOc1cccc(-c2ccc(CN(Cc3cccc(NCC(=O)O)n3)S(=O)(=O)c3cccnc3)cc2)c1` [Example 9, {6-[(3′-Ethoxybiphenyl-4-ylmethyl)(pyridin-3-ylsulfonyl)aminomethyl]-pyridin-2-ylamino}acetic acid], the IC50 in experiment [1] (setting [3]) is 0.051 nM. On to `CCOc1cccc(-c2ccc(CN(Cc3cccc(NCC(=O)O)n3)S(=O)(=O)c3ccccc3)cc2)c1` [Example 10, {6-[(Benzenesulfonyl)(3′-ethoxybiphenyl-4-ylmethyl)aminomethyl]pyridin-2-ylamino}acetic acid], for which the IC50 in experiment [1] (setting [3]) stood at 0.035 nM. Moreover, the “Inhibiting rate” value in experiment [2] is no less than 70%. `CCOc1cccc(-c2ccc(CN(Cc3cccc(NCC(=O)O)n3)S(=O)(=O)c3cccs3)cc2)c1` [Example 11, {6-[(3′-Ethoxybiphenyl-4-ylmethyl)(thiophen-2-ylsulfonyl)aminomethyl]-pyridin-2-ylamino}acetic acid]: in experiment [1] (setting [4]), the IC50 was determined as 0.049 nM.

With `CCOc1cccc(-c2ccc(CN(Cc3cccc(NCC(=O)O)n3)S(=O)(=O)c3ccccn3)cc2)n1` [Example 12, (6-{[4-(6-Ethoxypyridin-2-yl)benzyl](pyridin-2-ylsulfonyl)aminomethyl}-pyridin-2-ylamino)acetic acid], the IC50 in experiment [1] (setting [4]) turned out to be 0.037 nM. For `CC#Cc1cccc(-c2ccc(CN(Cc3cccc(NCC(=O)O)n3)S(=O)(=O)c3cccs3)cc2)c1` [Example 14, (6-{[3′-(1-Propynyl)biphenyl-4-ylmethyl](thiophen-2-ylsulfonyl)-aminomethyl}pyridin-2-ylamino)acetic acid], in experiment [1] (setting [3]), the IC50 is 0.011 nM. Take `CC#Cc1cccc(-c2ccc(CN(Cc3cccc(NCC(=O)O)n3)S(=O)(=O)c3ccccc3)cc2)c1` [Example 16, (6-{(Benzenesulfonyl)[3′-(1-propynyl)biphenyl-4-ylmethyl]aminomethyl}-pyridin-2-ylamino)acetic acid]: the IC50 in experiment [1] (setting [3]) was found to be 0.0088 nM. Also, the “Inhibiting rate” value in experiment [2] is listed as no less than 70%. As for `CC#Cc1cccc(-c2ccc(CN(Cc3cccc(NCC(=O)O)n3)S(=O)(=O)c3cccc(F)c3)cc2)c1` [Example 19, (6-{(3-Fluorobenzenesulfonyl)[3′-(1-propynyl)biphenyl-4-ylmethyl]-aminomethyl}pyridin-2-ylamino)acetic acid], the IC50 in experiment [1] (setting [3]) came out at 0.026 nM.
